Test results: patent US4374841A, “Pyridoxine derivatives, and use in therapeutics” (S. A. Labaz N.V., priority 1980, dated 1983)
Structures can show the parent of a compound that is named as a salt. Where two headings read alike, the source gives them in different places.

Columns and labels:
α-receptors = assay: Antiadrenergic properties: anti-α effect (reduction of epinephrine-increased blood-pressure); format: in vivo, dog; details: intravenous; for Anti-α effect: anaesthetized atropinized dog, epinephrine
Protocol: (§1) The purpose of this test was to determine the capacity of the compounds under study to reduce epinephrine-increased blood-pressure (anti-α effect) and epinephrine-accelerated heart-rate (anti-β effect) in the dog previously anaesthetized with pentobarbital (30 mg/kg) and atropinized (1 mg/kg).
After that, the dose of epinephrine so determined was administered followed by a dose, by intravenous route, of the compound to be studied. The percentage of reduction of hypertension produced by the compound under study in comparison with the hypertension previously obtained (about 100 mm.Hg) was then registered.
(§2) In both cases, the results were expressed as follows: […]
(§3) + for a <50%-reduction of the increase in pressure or cardiac frequency
(§4) ++ for a ≥50-reduction of the increase in pressure or cardiac frequency
(§5) +++ for the almost complete supression of the increase in pressure or cardiac frequency.

β-receptors = assay: Antiadrenergic properties: anti-β effect (reduction of epinephrine-accelerated heart-rate); format: in vivo; details: intravenous, anaesthetized atropinized dog
Protocol: as §1
The percentage of reduction of the epinephrine-induced acceleration of heart-rate obtained by means of the compounds under study in comparison with the tachycardia previously measured (about 70 beats) was then registered.
as §2, §3, §4, §5

mice = assay: Central depressant properties (passage of mice through a light ray); format: in vivo; details: intragastric, 30 minutes after administration, recorded over 15 minutes, dose with depressant action in 50% of the animals; for ED50: Mus musculus, po, 0.5 h, read-out: AD50 (the source's name)
Protocol: D. Central depressant properties
Thirty minutes after the intragastric administration of a dose of the compound to be studied, batches of mice were placed in a container through which a ray of light was projected. By means of a photoelectric cell, a record was made of the number of animals passing through the light ray over a period of 15 minutes. The same test was performed with control animals.
The AD50 was then calculated i.e. the dose of the compound under study which provoked a depressant action in 50% of the animals.

anaesthetized dog [1] = assay: Hypotension in the anaesthetized dog; format: in vivo; details: intravenous
Protocol: (a) Hypotension in the anaesthetized dog
The hypotensive effect was determined for at least one hour after the intravenous injection of a dose of the compound under study in the dog previously anaesthetized with pentobarbital (30 mg/kg) and atropinized (1 mg/kg).
Arterial pression was registered on a femoral artery.
The results were expressed as follows: […]
++ for a lasting reduction of about 30% in arterial pressure
+ for a short-lived reduction of about 20% in arterial pressure.

anaesthetized dog [2] = assay: Reserpine-like properties (cardiac frequency and contractility of the myocardium); format: in vivo; details: Canis lupus familiaris, 1 mg/kg, intravenous, anaesthetized dog
Text: C. Reserpine-like properties
the increase in cardiac frequency
the increase of (dP/dt) at its maximum, i.e. the increase of the maximum of the derivative of the left ventricular pressure in relation to time.
This derivative thus represented an index of contractility.

[3] = (dP/dt) maximum, read-out: increase in the contractility of the myocardium
[4] = read-out: increase in cardiac frequency

4,5-Dihydroxymethyl-3-(2-hydroxy-3-phenoxyethylamino-propoxy)-2-methyl-pyridine [C]
Anti-α effect (α-receptors; 10 mg/kg): +++
Anti-β effect (β-receptors; 10 mg/kg): + (for a <50%-reduction of the increase in pressure or cardiac frequency)

4,5-Dihydroxymethyl-3-[2-hydroxy-3-(2-methoxy-phenoxyethylamino)-propoxy]-2-methyl-pyridine
Anti-α effect (α-receptors; 10 mg/kg): ++ (for a ≥50-reduction of the increase in pressure or cardiac frequency)
Anti-β effect (β-receptors; 10 mg/kg): + (for a <50%-reduction of the increase in pressure or cardiac frequency)
AD50 (mice): 33 mg/kg

4,5-Dihydroxymethyl-3-[2-hydroxy-3-(2-phenoxy-2-methyl-ethylamino)-propoxy]-2-methyl-pyridine [J]
Anti-α effect (α-receptors; 10 mg/kg): +++
AD50 (mice): 47 mg/kg

4,5-Dihydroxymethyl-3-[2-hydroxy-3-(2-phenyl-1-methyl-ethylamino)-propoxy]- 2-methyl-pyridine [B]
Anti-α effect (α-receptors; 3.5 mg/kg): +++
Anti-β effect (β-receptors; 3.5 mg/kg): +++
Decrease in arterial pressure (anaesthetized dog [1]; 3.5 mg/kg): + (for a short-lived reduction of about 20% in arterial pressure)

4,5-Dihydroxymethyl-3-[2-hydroxy-3-(3,5-dimethyl-phenoxyethylamino)-propoxy]-2-methyl-pyridine
Anti-α effect (α-receptors; 10 mg/kg): ++ (for a ≥50-reduction of the increase in pressure or cardiac frequency)
Anti-β effect (β-receptors; 10 mg/kg): ++ (for a ≥50-reduction of the increase in pressure or cardiac frequency)

4,5-Dihydroxymethyl-3-[2-hydroxy-3-(3-methyl-phenoxyethylamino)-propoxy]-2- methyl-pyridine
Anti-α effect (α-receptors; 7.5 mg/kg): +++
Anti-β effect (β-receptors; 7.5 mg/kg): + (for a <50%-reduction of the increase in pressure or cardiac frequency)
Decrease in arterial pressure (anaesthetized dog [1]; 10 mg/kg): + (for a short-lived reduction of about 20% in arterial pressure)

4,5-Dihydroxymethyl-3-[3-(2,6-dimethyl-phenoxyethylamino)-2-hydroxy-propoxy]-2-methyl-pyridine [G]
Anti-α effect (α-receptors; 2 mg/kg): +++
Anti-β effect (β-receptors; 2 mg/kg): + (for a <50%-reduction of the increase in pressure or cardiac frequency)
Decrease in arterial pressure (anaesthetized dog [1]; 2 mg/kg): ++ (for a lasting reduction of about 30% in arterial pressure)

4,5-Dihydroxymethyl-3-[3-(2-ethyl-phenoxyethylamino)-2-hydroxy-propoxy]-2-methyl-pyridine [F]
Anti-α effect (α-receptors; 10 mg/kg): +++
Anti-β effect (β-receptors; 10 mg/kg): ++ (for a ≥50-reduction of the increase in pressure or cardiac frequency)
Decrease in arterial pressure (anaesthetized dog [1]; 10 mg/kg): + (for a short-lived reduction of about 20% in arterial pressure)

4,5-Dihydroxymethyl-3-{2-hydroxy-3-[(3-phenyl-1-methyl-1-propyl)-amino]-propoxy}-2-methyl-pyridine
Anti-α effect (α-receptors; 10 mg/kg): +++
Anti-β effect (β-receptors; 10 mg/kg): ++ (for a ≥50-reduction of the increase in pressure or cardiac frequency)

Cc1ccc(OCCNCC(O)COc2c(C)ncc(CO)c2CO)cc1 (stereo not drawn) [Compound M, 4,5-Dihydroxymethyl-3-[2-hydroxy-3-(4-methyl-phenoxyethylamino)-propoxy]-2-methyl-pyridine]
Anti-α effect (α-receptors; 10 mg/kg): ++ (for a ≥50-reduction of the increase in pressure or cardiac frequency)
change in vivo at 1 mg/kg (anaesthetized dog [2]; [3]): 10 to 30%
change in vivo at 1 mg/kg (anaesthetized dog [2]; [4]): 10 to 30%
Anti-β effect (β-receptors; 10 mg/kg): 0

COc1ccccc1OCCNCC(O)COc1c(C)ncc(CO)c1CO (stereo not drawn) [Compound U, 4,5-dihydroxymethyl-3-[2-hydroxy-3-(2-methoxy-phenoxyethylamino)-propoxy]-2-methyl-pyridine]
Anti-α effect (α-receptors; 10 mg/kg): +++
prolonged α-antiadrenergic activity at a dose as low as (α-receptors; lowest active dose, dog, dihydrochloride): 0.5 mg/kg
Anti-β effect (β-receptors; 10 mg/kg): ++ (for a ≥50-reduction of the increase in pressure or cardiac frequency)

Cc1ccc(C(C)C)c(OCCNCC(O)COc2c(C)ncc(CO)c2CO)c1 (stereo not drawn) [L, 4,5-Dihydroxymethyl-3-[2-hydroxy-3-(2-isopropyl-5-methyl-phenoxyethylamino)-propoxy]-2-methyl-pyridine]
Anti-α effect (α-receptors; 10 mg/kg): +++
change in vivo at 1 mg/kg (anaesthetized dog [2]; [3]): 10 to 30%
change in vivo at 1 mg/kg (anaesthetized dog [2]; [4]): 10 to 30%
Anti-β effect (β-receptors; 10 mg/kg): ++ (for a ≥50-reduction of the increase in pressure or cardiac frequency)
ED50 (mice): 40 mg/kg

CCCc1ccccc1OCCNCC(O)COc1c(C)ncc(CO)c1CO (stereo not drawn) [N, 4,5-Dihydroxymethyl-3-[2-hydroxy-3-(2-n-propyl-phenoxyethylamino)-propoxy]-2-methyl-pyridine]
Anti-α effect (α-receptors; 7 mg/kg): +++
Anti-β effect (β-receptors; 7 mg/kg): ++ (for a ≥50-reduction of the increase in pressure or cardiac frequency)
ED50 (mice): 42 mg/kg

Cc1ncc(CO)c(CO)c1OCC(O)CNCCOc1ccccc1C(C)C (stereo not drawn) [P, 4,5-Dihydroxymethyl-3-[2-hydroxy-3-(2-isopropyl-phenoxyethylamino)-propoxy]-2-methyl-pyridine]
Anti-α effect (α-receptors; 2 mg/kg): +++
change in vivo at 1 mg/kg (anaesthetized dog [2]; [3]): 10 to 30%
change in vivo at 1 mg/kg (anaesthetized dog [2]; [4]): 10 to 30%
Anti-β effect (β-receptors; 2 mg/kg): ++ (for a ≥50-reduction of the increase in pressure or cardiac frequency)
ED50 (mice): 42 mg/kg

CNC(=O)OCc1cnc(C)c(OCC(O)CNCCOc2ccccc2C)c1COC(=O)NC (stereo not drawn) [Q, 4,5-Di-(N-methylcarbamoyloxymethyl)-3-[2-hydroxy-3-(2-methyl-phenoxyethylamino)-propoxy]-2-methyl-pyridine]
Anti-α effect (α-receptors; 10 mg/kg): +++
Anti-β effect (β-receptors; 10 mg/kg): 0

CNC(=O)OCc1cnc(C)c(OCC(O)CNCCOc2ccccc2)c1COC(=O)NC (stereo not drawn) [R, 4,5-Di-(N-methylcarbamoyloxymethyl)-3-(2-hydroxy-3-phenoxyethylamino-propoxy)-2-methyl-pyridine]
Anti-α effect (α-receptors; 10 mg/kg): ++ (for a ≥50-reduction of the increase in pressure or cardiac frequency)
Anti-β effect (β-receptors; 10 mg/kg): 0

Cc1ncc(CO)c(CO)c1OCC(O)CNCCOc1ccccc1C(C)C (stereo not drawn) [S, 4,5-Dihydroxymethyl-3-[2-hydroxy-3-(2-isopropyl-phenoxyethylamino)-propoxy]-2-methyl-pyridine]
Anti-α effect (α-receptors; 10 mg/kg): +++
Anti-β effect (β-receptors; 10 mg/kg): ++ (for a ≥50-reduction of the increase in pressure or cardiac frequency)

Cc1ccc(OCCCNCC(O)COc2c(C)ncc(CO)c2CO)cc1C (stereo not drawn) [T, 4,5-Dihydroxymethyl-3-[2-hydroxy-3-(3,4-dimethyl-phenoxypropylamino)-propoxy]-2-methyl-pyridine]
Anti-α effect (α-receptors; 10 mg/kg): ++ (for a ≥50-reduction of the increase in pressure or cardiac frequency)
Anti-β effect (β-receptors; 10 mg/kg): ++ (for a ≥50-reduction of the increase in pressure or cardiac frequency)

Cc1ncc(CO)c(CO)c1OCC(O)CNCCOc1ccc(Cl)cc1 (stereo not drawn) [W, 4,5-Dihydroxymethyl-3-[2-hydroxy-3-(4-chloro-phenoxyethylamino)-propoxy]-2-methyl-pyridine]
Anti-α effect (α-receptors; 10 mg/kg): ++ (for a ≥50-reduction of the increase in pressure or cardiac frequency)
Anti-β effect (β-receptors; 10 mg/kg): + (for a <50%-reduction of the increase in pressure or cardiac frequency)

COc1ccc(CCNCC(O)COc2c(C)ncc(CO)c2CO)cc1OC.O=C(O)C(=O)O.O=C(O)C(=O)O (stereo not drawn) [X, 4,5-Dihydroxymethyl-3-[3-(3,4-dimethoxy-phenethylamino)-2-hydroxy-propoxy]-2-methyl-pyridine dioxalate]
Decrease in arterial pressure (anaesthetized dog [1]; 10 mg/kg): + (for a short-lived reduction of about 20% in arterial pressure)

Cc1ncc(CO)c(CO)c1OCC(O)CNCCc1ccccc1 (stereo not drawn) [Z, 4,5-Dihydroxymethyl-3-(2-hydroxy-3-phenylethyl-amino-propoxy)-2-methyl-pyridine oxalate]
change in vivo at 1 mg/kg (anaesthetized dog [2]; [3]): 10 to 30%
change in vivo at 1 mg/kg (anaesthetized dog [2]; [4]): 10 to 30%
ED50 (mice): 33 mg/kg
